Reference: US8664382B2, “Antibacterial compositions comprising metal phthalocyanine analogues” (Molteni Therapeutics S.r.l., priority 2002, dated 2014)

Tests used:
[1] = tested on: E. coli ATCC 25922; assay: Photoinactivation (biocidal activity) of E. coli cell suspension after red light irradiation; type: cell-based; settings: for concentration able to sterilize completely the cell suspension: in combination with EDTA 0.5 mM, 100 mW/cm2 red light (FIG. 2, FIG. 5)
Method: These microorganisms were used in the experiments in a stationary phase of growth.
(§1) The experimental protocol was the following:
(§2) The cell suspensions were diluted in an appropriate medium. Addition of an aliquot of stock solution of the composition to be tested to the cell suspension up to the intended final concentrations. Incubation in dark at 37° C. for 5 minutes. Irradiation (650≦λ≦850 nm; 50÷100 mW/cm2; 1÷10 minutes) of cell suspension for each dilution of the photosensitising composition.

[2] = tested on: Pseudomonas aeruginosa PAO-1; assay: Photoinactivation (biocidal activity) of Pseudomonas aeruginosa cell suspension after red light irradiation; type: cell-based
Method: The usefulness of the pharmaceutical compositions of the present invention has been evaluated through their activity against the Gram negative micro-organisms Pseudomonas aeruginosa PAO-1 and E. coli ATCC 25922. These microorganisms were used in the experiments in a stationary phase of growth.
as §1, §2

Row | Substance | concentration able to sterilize completely the cell suspension ([1]; 5 min incubation) [µM] | photosensitizer concentration necessary to sterilize the cell suspension ([1]; without EDTA, 5 min incubation, 100 mW/cm2 red light (FIG. 5a)) [µM] | reduction of the initial population ([1]; compound alone, no chelating agent, 5 min incubation, irradiation 100 mW/cm2 red light (FIG. 1)) [log] | complete sterilization of the cell suspension ([1]; compound alone, no chelating agent, irradiation 100 mW/cm2 red light (FIG. 1)) | concentration up to which not active (photoinactivation) ([2]; compound alone, no chelating agent, 100 mW/cm2 red light (FIG. 3)) [µM] | reduction of the population ([2]; with EDTA 0.5 mM, 1 μM concentration, 100 mW/cm2 red light (FIG. 3a)) [log] | concentration able to sterilize the cell suspension ([2]; with EDTA 0.5 mM, 100 mW/cm2 red light (FIG. 3a)) [µM]
1 | {2(3),9(10),16(17),23(24)-tetra[1,3-bis-(trimethylammonium)propyl-2-oxy]zinc(II) phthalocyanine}octaiodide [compound 2] | 1 | 20 |  |  |  |  | 
2 | {2,3,9,10,16,17,23,24-octa[3-(N,N,N-trimethylammonium)phenoxy]zinc(II) phthalocyanine}octaiodide [compound 1] | 1 |  | 4 | cannot be obtained | > 40 | 5 | 5
